Broadly, the IC50 is the concentration at which inhibition is half-maximal.

Here are results for one compound from article PMC8837603, “Lapcin, a potent dual topoisomerase I/II inhibitor discovered by soil metagenome guided total chemical synthesis” (Nature Communications, 2022).

The subject of assay [1] is Escherichia coli ATCC25922. The assay can be described thus: MIC assay, Escherichia coli. The class given is cell-based. Conditions: LB, 16 h, 37 °C, n = 2. As for the experimental part: (§1) Lapcin was tested for antimicrobial activity against the bacteria and fungi shown in Supplementary Table 4. […] Lapcin was dissolved in sterile DMSO to make a 3.2 mg/mL working solution. Lapcin was diluted across 96-well plates using a 2-fold serial dilution method to give a concentration range of 64 to 0.06 µg/mL in 50 µL of LB broth. A single colony of each test organism was grown in either 5 mL LB (bacteria) or YPD (fungi) medium overnight at 37 °C or 30 °C, respectively. Saturated overnight cultures were diluted 5,000-fold, and then 50 µL of dilute cells were transferred into each well of the assay plates. Finally, each well contains a total volume of 100 µL.

The subject of another assay is Topo II. The assay is described as follows: Enzyme concentration dependence, Topo II activity assay. The class given is biochemical. The conditions noted are these: unlike known DNA intercalators; Supplementary Fig. 38.
The subject of assay [2] is Wheat germ Topoisomerase I. The assay can be described thus: DNA intercalator assay / enzyme concentration dependence, Topo I. The conditions noted are these: unlike known DNA intercalators; supercoil pBR322, 30 min, 37 °C; two independent times. The class given is biochemical. The source says: DNA intercalator assay: A commercial DNA unwinding assay kit (Inspiralis, UK) was used in this study with a slight modification. Ethidium bromide was used as intercalator positive control. The assay contains two steps: the first step is used to determine the minimum concentration of compounds that will inhibit the enzyme activity; the second step is used to determine whether compounds act as intercalator or inhibitor. Ethidium bromide was used as the intercalator positive control and supercoil pBR322 was used as the substrate. The assay mixture was set up on the ice. Briefly, the master mixture was prepared by adding 3 µL of […] wheat germ topoisomerase I assay buffer, 0.5 µL of 1 µg/µL supercoil pBR322, 1.5 uL serial diluted compounds (dissolved in DMSO). H2O was added to a final volume of 29 µL. Finally, 1 µL of 2 U/µL Wheat germ Topoisomerase I was added to the reaction mixture. The reaction was incubated for 30 minutes at 37℃. The reaction was stopped by added 20 µL of H2O, and 50 µL of butanol (water-saturated). The mixture was vortexed vigorously and centrifuged for 1 minute. The lower, aqueous layer was removed and added into a new tubes containing 50 µL STEB buffer and 40 µL of Chloroform/isoamyl alcohol (v:v, 24:1). The mixture was vortexed vigorously for 10 secs and centrifuge for 2 minutes. […]

The subject of assay [3] is Candida albicans ATCC76485. The assay can be described thus: MIC assay, Candida albicans. It counts as cell-based. The conditions noted are these: YPD, 16 h, n = 2. As for the experimental part:
as §1

A further assay deals with T1, Human Topoisomerase I (Homo sapiens, UniProt P11387).
T1 construct: purchased Inspiralis, UK
T1 sequence (P11387 1-765): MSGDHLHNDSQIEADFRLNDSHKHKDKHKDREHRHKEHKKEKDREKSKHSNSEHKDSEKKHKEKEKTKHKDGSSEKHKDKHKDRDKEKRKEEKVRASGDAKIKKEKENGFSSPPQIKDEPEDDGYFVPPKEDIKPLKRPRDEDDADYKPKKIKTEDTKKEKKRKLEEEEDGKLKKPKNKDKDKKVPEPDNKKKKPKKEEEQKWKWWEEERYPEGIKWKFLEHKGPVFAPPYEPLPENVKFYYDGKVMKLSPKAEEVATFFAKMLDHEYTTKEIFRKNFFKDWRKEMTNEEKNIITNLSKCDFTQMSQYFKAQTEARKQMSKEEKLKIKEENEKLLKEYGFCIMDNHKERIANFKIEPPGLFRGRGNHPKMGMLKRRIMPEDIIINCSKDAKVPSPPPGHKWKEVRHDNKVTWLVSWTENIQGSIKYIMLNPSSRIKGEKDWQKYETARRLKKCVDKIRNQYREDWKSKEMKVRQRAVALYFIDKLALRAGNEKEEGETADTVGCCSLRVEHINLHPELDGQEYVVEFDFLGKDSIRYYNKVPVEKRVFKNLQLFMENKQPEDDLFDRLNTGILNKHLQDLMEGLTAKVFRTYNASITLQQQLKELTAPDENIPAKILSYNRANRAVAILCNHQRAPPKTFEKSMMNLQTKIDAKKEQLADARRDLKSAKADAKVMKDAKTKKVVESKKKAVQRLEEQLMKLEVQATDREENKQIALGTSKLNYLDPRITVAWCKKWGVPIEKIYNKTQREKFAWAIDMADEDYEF
The assay is described as follows: Human Topoisomerase I DNA relaxation assay. The class given is biochemical. As for the experimental part:
All values were normalized to the negative control wells. […] All experiments were performed in triplicate (n = 3).

As for `CCCCCCCCCCCC(O)CC(=O)N[C@@H](C)C(=O)N[C@@H](CO)C(=O)N[C@@H](C)C(=O)Nc1ccc(-c2nc(-c3nc(C(=O)N[C@@H](CC(N)=O)C(=O)Nc4ccc(C(=O)Nc5ccc(C(=O)Nc6ccc(C(=O)O)cc6)c(O)c5OC(C)C)cc4)cs3)cs2)cc1` (stereo partly drawn) [Lapcin, 4-(4-(4-((2S)-4-amino-2-(2'-(4-((2S)-2-((2S)-3-hydroxy-2-((2S)-2-(3-hydroxytetradecanamido)propanamido)propanamido)propanamido)phenyl)-[2,4'-bithiazole]-4-carboxamido)-4-oxobutanamido)benzamido)-2-hydroxy-3-isopropoxybenzamido)benzoic acid], the “MIC, Escherichia coli” value in assay [1] is reported as above 32 µg/mL. Besides, the “dependence of activity on enzyme concentration, Topo II” value with Topo II is on record as “strong dependence on enzyme concentration”. Moreover, the “dependence of activity on enzyme concentration, Topo I” value in assay [2] was “strong dependence on enzyme concentration”. Moreover, in assay [3], the “MIC, Candida albicans” value is reported as above 32 µg/mL. The “fold more potent than camptothecin, topoisomerase I” value on Human Topoisomerase I turned out to be 14 times. The same compound showed an IC50 on Human Topoisomerase I (supercoiled pBR322, 30 min, 37 °C, gel, ethidium bromide, n = 3) of 2170 nM.
